Measured values from patent publication US20220062233A1 (The Board of Trustees of the Leland Stanford Junior …, priority 2018, published 2022).

Tests used:
[1] = system: Huntington's disease patient iPSCs (ND50036); test: iPSC viability at IC20; type: cell-based, human; conditions: at the concentration of IC20
[2] = In vivo pharmacokinetics and brain penetration, single dose, mouse; conditions: for clearance / half-life / Vd / Cmax: C57BL6, blood; for clearance / half-life / Vd: intravenous, 0.5 mg/kg; for clearance / half-life / Vd / Cmax / Kp / Fabs (%): Mouse; for clearance / half-life / Vd / Cmax / Kp: single dose; for half-life: read-out: Elimination Half-life (converted); for Vd: read-out: Vdss; for Cmax: oral, 5 mg/kg, read-out: Cmax (maximum concentration in blood or plasma); for Kp: C57BL6, brain / blood, averaged over collection time points, read-out: BB_Ratios (brain-to-blood concentration ratio); for Fabs (%): single dose IV/PO
Protocol: (§1) B. In Vivo Pharmacokinetics and Brain Penetration
(§2) The pharmacokinetic assessment was carried out in rodents (e.g. Sprague-Dawley rats or C57BL6 mice) after a single dose administration by IV (e.g., 0.5 mg/kg) or PO (e.g., 5 mg/kg). Biological samples were collected at pre-determined time points, batch-processed, and the test articles were extracted and quantified with LC-MS, utilizing internal standards and separately prepared calibration curves. Blood (or plasma) concentration to time profiles were acquired for compounds and a selected list is presented in Table 6 with the non-compartmental PK parameters (e.g., peak concentration in circulation (Cmax), absolute bioavailability (Fabs), elimination half-life, clearance (CL), and volume of distribution at steady state (Vdss)). Upon terminal collection, the brains were also collected and homogenized in an extraction buffer, followed by quantification with LC-MS. After brain concentration levels (ng/g of brain tissue) were determined, the mean ratios of the brain-to-blood (BB) concentration (or brain-to-plasma concentration) at various collection time points were averaged, then shown in Table 6 as BB Ratio to indicate the extent of brain penetration.
FIG. 1A is a graph showing in vitro mouse hepatocyte stability on compound #2 (closed circle) and compound #42 (open circle). FIG. 1B is a graph showing blood concentration-time profile of mouse (N=3 per group) after IV administration of 0.5 mg/kg of compound #2 (closed circle) or #42 (open circle), or PO administration of 5 mg/kg of compound #2 (closed triangle) or #42 (open triangle).

mutant HTT = test: Mutant HTT assay in induced pluripotent stem cells (iPSC); type: cell-based, human; conditions: HD patient iPSCs, one day incubation; class symbols; read-out: iPSC IC20 (nM) mHTT
Outline: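 Huntington's disease patient iPSCs (ND50036) plated at 7,000 cells/well, compound-treated after 48 h for one day in mTeSR1. Lysates normalised by BCA protein, then mutant HTT measured by sandwich ELISA: anti-human HTT capture, biotinylated mutant-HTT-specific detection, streptavidin-HRP/TMB colorimetric readout, interpolated from a standard curve.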

[3] = system: Gmr::HTT97Q fly (mutant HTT, rough eye); test: HD-Drosophila phenotypic assay (rough eye analysis); type: in vivo, Drosophila melanogaster; conditions: Gmr-HTT97Q flies, compound 10 μM in media
Source text: D. Alleviation of Neuron Degeneration Phenotypes of Mutant HTT in Drosophila HD Models
The Drosophila melanogaster (fruit fly) HD models carry the coding sequence of human HTT exon1 with 97 CAG repeats to mimic mutant HTT of Huntington's disease (HD). The Gmr::HTT97Q fly, expressing mutant HTT primarily in the neurons of Drosophila compound eyes, has a severe degeneration of photoreceptor neurons and the phenotypic trait ‘rough eye’. All of the fly stocks and genetics crosses are maintained at 25° C. on standard cornmeal yeast agar media.
b. Eye Morphology (Rough Eye) Analysis
Fifteen adult male flies (Gmr-HTT97Q/Gmr-HTT97Q or Gmr/Gmr) are crossed with 15 virgin female flies W1118(+/+) in a vial containing standard yeast agar media with the compound in a concentration of 10 μM. Parent-flies are removed from vials at day 7, followed by a collection of newly hatched flies for ‘rough eye’ analysis. The morphology of compound eyes is captured using a Leica DMR upright microscope equipped with a digital camera (CoolSNAP 5.0, Photometrics). To increase the depth of field, imaging software is used to create montage composite images (Helicon Focus, HeliconSoft). A total of 10 flies are collected for analysis in each individual condition, and the biological experiment is conducted three times. DMSO, the reagent solvent of the compound, is included as a control.

[4] = In vivo pharmacokinetics and brain penetration, single dose, rat
Protocol: as §1, §2

[5] = mouse, PO 5 mg/kg, compound #42 versus #2

| Structure (SMILES) | iPSC viability at IC20 [1] | clearance [2] [mL/min/kg] | half-life [2] [h] | Vd [2] [L/kg] | Cmax [2] [nM] | Kp [2] | Fabs (%) [2] | IC20 (mutant HTT) [nM] | HD-Drosophila Phenotypic assay (rescue of rough eye phenotype) [3] | Kp ([4]; Sprague-Dawley, brain / blood, single dose, averaged over collection time points, read-out: BB_Ratios (brain-to-blood concentration ratio)) | clearance ([4]; Sprague-Dawley, in vivo, intravenous, single dose) [mL/min/kg] | Vd ([4]; Sprague-Dawley, in vivo, intravenous, single dose, read-out: Vdss) [L/kg] | Cmax ([4]; Sprague-Dawley, in vivo, single dose, read-out: Cmax (maximum concentration in blood or plasma)) [nM] | half-life ([4]; Sprague-Dawley, in vivo, single dose, read-out: Elimination Half-life (converted)) [h] | Fabs (%) ([4]; single dose IV/PO) | elimination half-life (comparison) ([2]; mouse, IV 0.5 mg/kg, compound #42 versus #2, FIG. 1B) | Cmax (comparison) [2, 5] | Fabs (comparison) [2, 5] | CL (comparison) ([2]; mouse, randomized cross-over after 48-hour washout, compound #42 versus #2) |
| --- | --- | --- | --- | --- | --- | --- | --- | --- | --- | --- | --- | --- | --- | --- | --- | --- | --- | --- | --- |
| CS(=N)(=O)c1ccc(CN[C@@H]2CCCc3c2[nH]c2ccc(Br)cc32)cc1 (stereo partly drawn) [Compound 49, (4-((((R)-6-bromo-2,3,4,9-tetrahydro-1H-carbazol-1-yl)amino)methyl)phenyl)(imino)(methyl)-λ^6-sulfanone] | + (cell viability is greater than 75% at the concentration of IC20) | 55 | 1.1 | 5.1 | > 300 | ≥ 1 | <30% | < 100 |  |  |  |  |  |  |  |  |  |  |  |
| OCc1ccc(CN[C@@H]2CCCc3c2[nH]c2ccc(Br)cc32)cc1 [Compound 2, (R)-(4-(((6-bromo-2,3,4,9-tetrahydro-1H-carbazol-1-yl)amino)methyl)phenyl)methanol] | + (cell viability is greater than 75% at the concentration of IC20) | 183 | 0.8 | 11 | < 100 |  | <30% | < 100 | & (rough eye phenotype of HD flies is rescued by testing compound greater than 40%) |  |  |  |  |  |  |  |  |  |  |
| OCc1ccc(CNC2CCCc3c2[nH]c2ccc(Br)cc32)cc1 (centres unmarked) [Compound 1] |  |  |  |  |  |  |  |  | & (rough eye phenotype of HD flies is rescued by testing compound greater than 40%) | ≥ 1 | 85 | 12 | 100 to 300 | 1.9 | <30 |  |  |  |  |
| CC(C)(O)c1ccc(CN[C@@H]2CCCc3c2[nH]c2ccc(Br)cc32)cc1 [Compound 31, (R)-2-(4-(((6-bromo-2,3,4,9-tetrahydro-1H-carbazol-1-yl)amino)methyl)phenyl)propan-2-ol] | + (cell viability is greater than 75% at the concentration of IC20) | 50 | 2.6 | 9.1 | 100 to 300 | ≥ 1 | 30-70% | < 100 |  |  |  |  |  |  |  |  |  |  |  |
| OCCOCc1ccc(CN[C@@H]2CCCc3c2[nH]c2ccc(Br)cc32)cc1 (single isomer, unassigned) [Compound 28] | + (cell viability is greater than 75% at the concentration of IC20) | 16.7 | 2.4 | 3.3 | > 300 | ≥ 1 | >70% | < 100 |  |  |  |  |  |  |  |  |  |  |  |
| [2H]C([2H])(O)c1ccc(CN[C@@H]2CCCc3c2[nH]c2ccc(Br)cc32)cc1 [Compound 42, (R)-(4-(((6-bromo-2,3,4,9-tetrahydro-1H-carbazol-1-yl)amino)methyl)phenyl)methan-d2-ol] | + (cell viability is greater than 75% at the concentration of IC20) | 80 | 1.2 | 7.2 | 100 to 300 |  | <30% | < 100 |  |  |  |  |  |  |  | longer | significantly increased | significantly increased | slower CL |
